We go through 19 compounds from patent US20160024114A1, “MACROCYCLIC RIP2 KINASE INHIBITORS” (ONCODESIGN S.A, priority 2013, published 2016).

The target of this test is RIP2 recombinant protein (Homo sapiens, UniProt O43353). In words: radiometric protein kinase assay (33PanQinase Activity Assay), in vitro peptide-based kinase assay. The test is classed as biochemical. Particulars: for remaining activity at 0.1 µM / remaining activity at 1 µM: 1 h; for remaining activity at 0.1 µM: compound at 0.1 μM; for remaining activity at 1 µM: compound at 1 μM; for IC50: ATP 3.0 μM, RIP2 15.7 nM, substrate RBER-Chktide. As for the experimental part:
The inhibition of RIP2 kinase was assessed using RIP2 recombinant protein in an in vitro peptide-based kinase assay.
A radiometric protein kinase assay (^33PanQinase® (^33PanQinase Activity Assay) is used for measuring the kinase activity. All assays are performed in 96-well FlashPlates™ from Perkin Elmer in a 50 μl reaction volume. The reaction cocktail is pipetted in 4 steps in the following order:
10 μl of non-radioactive ATP solution (in H2O)
25 μl of assay buffer/[γ-^33P]-ATP mixture
5 μl of test sample in 10% DMSO
10 μl of enzyme/substrate mixture
The assay for RIP2 contains 70 mM HEPES-NaOH pH 7.5, 3 mM MgCl2, 3 mM MnCl2, 3 μM Na-orthovanadate, 1.2 mM DTT, 50 μg/ml PEG20000, ATP (3.0 μM), [γ-^33P]-ATP (approx. 5×10^05 cpm per well), protein kinase RIP2 (15.7 nM) and substrate (RBER-Chktide), 2.0 μg/50 μl). The reaction cocktails were incubated at 30° C. for 60 minutes. The reaction was stopped with 50 μl of 2% (v/v) H3PO4, plates were aspirated and washed two times with 200 μl 0.9% (w/v) NaCl. Incorporation of ^33Pi (counting of “cpm”) was determined with a microplate scintillation counter.
The compounds are dissolved to 10 mM in DMSO. Where needed, solutions are sonicated in a bath sonicator.
Table 4 provides the pIC50 values and % Remaining activity values at two concentrations (1 μM and 0.1 μM) of the compounds according to the invention, obtained using the above mentioned kinase assay.

RIP2 recombinant protein, sequence (O43353 whole entry): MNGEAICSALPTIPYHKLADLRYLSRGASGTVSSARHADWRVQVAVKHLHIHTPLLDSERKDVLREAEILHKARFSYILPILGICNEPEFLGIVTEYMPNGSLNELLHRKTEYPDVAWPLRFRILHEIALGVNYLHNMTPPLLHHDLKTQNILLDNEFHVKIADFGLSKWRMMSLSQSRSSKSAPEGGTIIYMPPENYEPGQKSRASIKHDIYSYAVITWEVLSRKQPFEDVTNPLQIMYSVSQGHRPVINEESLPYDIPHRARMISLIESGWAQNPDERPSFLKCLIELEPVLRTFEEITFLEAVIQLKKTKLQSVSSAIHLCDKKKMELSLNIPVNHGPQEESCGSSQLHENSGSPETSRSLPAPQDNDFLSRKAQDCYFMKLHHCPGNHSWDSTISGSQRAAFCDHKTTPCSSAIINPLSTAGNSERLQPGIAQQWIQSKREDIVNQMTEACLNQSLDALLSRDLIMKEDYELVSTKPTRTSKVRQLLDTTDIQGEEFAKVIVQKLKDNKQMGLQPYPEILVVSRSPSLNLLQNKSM

`COCCC(=O)N1CCCN(C)c2cccc(c2)-c2cnn3ccc(nc23)NCC1` [Compound B19]: the remaining activity at 0.1 µM is less than 50% and the remaining activity at 1 µM is less than 50%.
`NC(=O)c1ccc2cc1OCC(=O)NCCCNc1ccn3ncc-2c3n1` [Compound B21]: the remaining activity at 0.1 µM was less than 50%, the remaining activity at 1 µM is less than 50% and the IC50 was less than 100 nM.
As to `O=C(CN1CCOCC1)N1CCNc2ccn3ncc(c3n2)-c2cccc(c2)OCC1` [Compound B36], the remaining activity at 0.1 µM is less than 50%, the remaining activity at 1 µM is less than 50% and the IC50 is less than 100 nM.
As to `CN(C)CCN1CCN(C(=O)C2CC2)CCOc2cccc(c2)-c2cnn3ccc1nc23` [Compound B48], the remaining activity at 0.1 µM was less than 50%, the remaining activity at 1 µM was less than 50% and the IC50 is less than 100 nM.
`O=C1CCNc2ccn3ncc(c3n2)-c2cc(F)cc(c2)OCCN1` [Compound B74]: the remaining activity at 0.1 µM was less than 50%, the remaining activity at 1 µM is less than 50% and the IC50 lay within 100 to 1000 nM.
As for `CN1CCN(C(=O)C2CC2)CCNc2ccn3ncc(c3n2)-c2cccc(c2)C1` [Compound B76], the remaining activity at 0.1 µM was greater than 50%, the remaining activity at 1 µM is less than 50% and the half-maximal inhibitory concentration (IC50) lay in the range of 100 to 1000 nM.
Consider `CCCCN1CCNc2ccn3ncc(c3n2)-c2cc(F)cc(c2)OCC1` [Compound F81], for which the remaining activity at 0.1 µM was less than 50%, the remaining activity at 1 µM is less than 50% and the 50% inhibitory concentration (IC50) is less than 100 nM.
On to `Fc1cc2cc(c1)-c1cnn3ccc(nc13)NCCN(C1CCOCC1)CCO2` [Compound F82], for which the remaining activity at 0.1 µM is less than 50%, the remaining activity at 1 µM is less than 50% and the IC50 was less than 100 nM.
Consider `CCC(C)N1CCNc2ccn3ncc(c3n2)-c2cc(F)cc(c2)OCC1` (stereo not shown) [Compound F83], for which the remaining activity at 0.1 µM was less than 50%, the remaining activity at 1 µM was less than 50% and the 50% inhibitory concentration (IC50) is less than 100 nM.
Regarding `Fc1cc2cc(c1)-c1cnn3ccc(nc13)NCCN(C1CCC3(CC1)OCCO3)CCO2` [Compound F84], the remaining activity at 0.1 µM was less than 50%, the remaining activity at 1 µM was less than 50% and the IC50 was in the range of 100 to 1000 nM.
For the compound `COCCN1CCCNc2ccn3ncc(c3n2)-c2cc(F)cc(c2)OCC1` [Compound F86], the remaining activity at 0.1 µM was less than 50%, the remaining activity at 1 µM is less than 50% and the IC50 was less than 100 nM.
As for `COCCN1CCCOc2cc(F)cc(c2)-c2cnn3ccc(nc23)NCC1` [Compound F87], the remaining activity at 0.1 µM was less than 50%, the remaining activity at 1 µM is less than 50% and the half-inhibitory concentration (IC50) was less than 100 nM.
On to `COCCN1CCCNc2ccn3ncc(c3n2)-c2cc(Cl)cc(c2)OCC1` [Compound F88], for which the remaining activity at 0.1 µM was less than 50%, the remaining activity at 1 µM was less than 50% and the 50% inhibitory concentration (IC50) is less than 100 nM.
`CC1(C)CCCC(N2CCNc3ccn4ncc(c4n3)-c3cc(F)cc(c3)OCC2)C1` (stereo not shown) [Compound F89]: the remaining activity at 0.1 µM is less than 50%, the remaining activity at 1 µM was less than 50% and the IC50 lay within 100 to 1000 nM.
Consider `NC(=O)c1cc2cc(c1)-c1cnn3ccc(nc13)NCCN(C1COC1)CCO2` [Compound F91], for which the remaining activity at 0.1 µM was less than 50%, the remaining activity at 1 µM was less than 50% and the half-maximal inhibitory concentration (IC50) was less than 100 nM.
Consider `CCCCN1CCNc2ccn3ncc(c3n2)-c2cc(cc(C(N)=O)c2)OCC1` [Compound F92], for which the remaining activity at 0.1 µM was less than 50%, the remaining activity at 1 µM was less than 50% and the 50% inhibitory concentration (IC50) was less than 100 nM.
In the case of `CC1CNc2ccn3ncc(c3n2)-c2cccc(c2)OCC(=O)N1` (stereo not shown) [Compound F105], the remaining activity at 0.1 µM was greater than 50%, the remaining activity at 1 µM is less than 50% and the half-inhibitory concentration (IC50) lay in the range of 100 to 1000 nM.
As to `O=C1COc2cncc(c2)-c2cnn3ccc(nc23)NCCCN1` [Compound F106], the IC50 is 100 to 1000 nM.
As to `CC1CNCCOc2cccc(c2)-c2cnn3ccc(nc23)N1` (stereo not shown) [Compound F108], the IC50 fell in the range of 100 to 1000 nM.

A word on the remaining activity: it is what remains of the control signal, in per cent. As a reminder, the IC50 is the concentration that gives 50% inhibition.
